Where “and” joins values, the source holds several entries; their conditions need not be identical. Equal values may be shown once. Entries after “also recorded” stand apart in the source; their conditions may differ. Read-outs that look alike come from different tables or passages of the source.
Tests used:
SARS-CoV 3CL protease = SARS-CoV 3CL protease (Severe acute respiratory syndrome coronavirus, UniProt P0C6X7); test: biochemical; details: for IC50: FRET, three parallel tests; for inhibitory activity on SARS-CoV 3CL proteases (in words): statement in words
SARS-CoV-2 3CL protease = SARS-CoV-2 3CL protease (Severe acute respiratory syndrome coronavirus 2, UniProt P0DTD1); test: In-vitro enzyme activity inhibition test on SARS-CoV-2 3CL protease (fluorescence resonance energy transfer method); assay type: biochemical; details: for inhibitory activity on SARS-CoV-2 3CL proteases (in words): statement in words
[1] = 1 μM compound, parallel tests 1, 2, 3, 1 µM
[2] = 5 μM compound, parallel tests 1, 2, 3, 5 µM
[3] = 10 μM compound, parallel tests 1, 2, 3, 10 µM
[4] = 20 μM compound, parallel tests 1, 2, 3, 20 µM
[5] = 30 μM compound, parallel tests 1, 2, 3, 30 µM
[6] = 50 μM compound, parallel tests 1, 2, 3, 50 µM
[7] = 100 μM compound, parallel tests 1, 2, 3, 100 µM
[8] = IC50, SARS-CoV-2 3CL protease, FRET, three parallel tests
[9] = 0.1 μM compound, parallel tests 1, 2, 3, 0.1 µM
[10] = 0.5 μM compound, parallel tests 1, 2, 3, 0.5 µM
[11] = read-out: inhibition percentage, 1 μM compound, parallel tests 1, 2, 3
[12] = read-out: inhibition percentage, 5 μM compound, parallel tests 1, 2, 3
[13] = read-out: inhibition percentage, 10 μM compound, parallel tests 1, 2, 3
[14] = read-out: inhibition percentage, 20 μM compound, parallel tests 1, 2, 3
[15] = read-out: inhibition percentage, 30 μM compound, parallel tests 1, 2, 3
[16] = read-out: inhibition percentage, 50 μM compound, parallel tests 1, 2, 3
[17] = read-out: inhibition percentage, 100 μM compound, parallel tests 1, 2, 3

Row | SMILES | inhibition percentage (SARS-CoV 3CL protease; [1]) | inhibition percentage (SARS-CoV 3CL protease; [2]) | inhibition percentage (SARS-CoV 3CL protease; [3]) | inhibition percentage (SARS-CoV 3CL protease; [4]) | inhibition percentage (SARS-CoV 3CL protease; [5]) | inhibition percentage (SARS-CoV 3CL protease; [6]) | inhibition percentage (SARS-CoV 3CL protease; [7]) | IC50 (SARS-CoV 3CL protease; IC50, SARS-CoV 3CL protease) | inhibitory activity on SARS-CoV 3CL proteases (in words) (SARS-CoV 3CL protease) | inhibition percentage (SARS-CoV-2 3CL protease; [1]) | inhibition percentage (SARS-CoV-2 3CL protease; [2]) | inhibition percentage (SARS-CoV-2 3CL protease; [3]) | inhibition percentage (SARS-CoV-2 3CL protease; [4]) | inhibition percentage (SARS-CoV-2 3CL protease; [5]) | inhibition percentage (SARS-CoV-2 3CL protease; [6]) | inhibition percentage (SARS-CoV-2 3CL protease; [7]) | IC50 (SARS-CoV-2 3CL protease; [8]) [µM] | inhibitory activity on SARS-CoV-2 3CL proteases (in words) (SARS-CoV-2 3CL protease) | also measured
1 | Cc1cc2c(C(C)C)c(O)c(O)c(C=O)c2c(O)c1-c1c(C)cc2c(C(C)C)c(O)c(O)c(C=O)c2c1O (single isomer, unassigned) [(+)- gossypol, (+)-gossypol] | 3.96 and 4.54 and 5.87 | 11.58 and 9.88 and 13.43 | 19.12 and 16.53 and 20.66 | 22.9 and 26.42 and 30.76 | 28.14 and 30.43 and 38.33 | 45.56 and 48.42 and 51.33 | 72.33 and 62.28 and 74.43 | 51.6 ± 1.71 µM | all have inhibitory activity | 2.45 and 3.18 and 3.87 | 5.69 and 7.88 and 9.54 | 9.43 and 11.87 and 14.87 | 18.73 and 20.90 and 22.44 | 25.21 and 28.43 and 29.13 | 36.55 and 40.32 and 38.72 | 58.34 and 61.83 and 55.88 | 75.2 ± 1.88 | all have inhibitory activity | 
2 | Cc1cc2c(C(C)C)c(O)c(O)c(C=O)c2c(O)c1-c1c(C)cc2c(C(C)C)c(O)c(O)c(C=O)c2c1O (single isomer, unassigned) [(−)- gossypol, (−)-gossypol] | 43.78 and 40.92 and 50.01 | 64.32 and 58.9 and 67.22 | 77.32 and 72.54 and 73.76 | 86.43 and 78.13 and 85.43 | 91.83 and 87.54 and 90.32 | 98.42 and 92.10 and 97.54 | 99.74 and 98.12 and 99.53 | 1.79 µM and < 10 µM | all have inhibitory activity; also recorded: excellent inhibitory activity | 31.43 and 32.87 and 34.65 | 52.19 and 48.98 and 56.91 | 71.90 and 65.43 and 69.78 | 82.54 and 75.44 and 83.47 | 90.45 and 83.21 and 91.45 | 96.88 and 90.68 and 95.87 | 99.23 and 96.73 and 98.44 | < 10 | all have inhibitory activity; also recorded: excellent inhibitory activity | inhibition percentage (SARS-CoV 3CL protease; [9]): 13.11 and 10.83 and 15.87; inhibition percentage (SARS-CoV 3CL protease; [10]): 24.54 and 21.88 and 30.26; inhibition percentage (SARS-CoV-2 3CL protease; [9]): 12.83 and 10.83 and 14.77; inhibition percentage (SARS-CoV-2 3CL protease; [10]): 20.99 and 19.88 and 22.88; IC50 (SARS-CoV-2 3CL protease; IC50): 2.97 ± 0.473 µM
3 | CC(=O)O.Cc1cc2c(C(C)C)c(O)c(O)c(C=O)c2c(O)c1-c1c(C)cc2c(C(C)C)c(O)c(O)c(C=O)c2c1O [Acetate gossypol, acetate gossypol] | 26.61 and 19.97 and 32.84 | 41.15 and 36.26 and 45.91 | 62.48 and 52.56 and 65.81 | 75.14 and 65.81 and 78.97 | 86.61 and 76.15 and 87.62 | 93.52 and 85.63 and 94.62 | 97.81 and 91.32 and 98.71 |  | all have inhibitory activity; also recorded: excellent inhibitory activity | 24.71 and 17.94 and 30.17 | 37.81 and 34.61 and 43.51 | 59.14 and 50.87 and 63.21 | 72.87 and 63.41 and 76.32 | 85.31 and 73.94 and 84.81 | 90.17 and 82.76 and 91.83 | 95.41 and 89.67 and 97.16 |  | all have inhibitory activity; also recorded: excellent inhibitory activity | IC50 (SARS-CoV 3CL protease; SARS-CoV 3CL protease, read-out: IC50): 5.16 ± 0.712 µM; IC50 (SARS-CoV-2 3CL protease; SARS-CoV-2 3CL protease, FRET, three parallel tests, read-out: IC50): 6.09 ± 0.784 µM
4 | Cc1cc2c(C(C)C)c(O)c(O)c(C=O)c2c(O)c1-c1c(C)cc2c(C(C)C)c(O)c(O)c(C=O)c2c1O [Gossypol, gossypol] | 18.54 and 31.50 | 35.68 and 44.78 | 51.33 and 64.31 | 64.56 and 77.58 | 75.44 and 86.42 | 84.12 and 93.41 | 90.09 and 98.44 | 5.43 ± 0.734 µM | all have inhibitory activity; also recorded: excellent inhibitory activity | 16.13 and 28.41 | 33.24 and 41.67 | 49.17 and 61.32 | 61.34 and 74.52 | 72.15 and 83.12 | 81.17 and 90.16 | 87.84 and 95.27 | 6.91 ± 0.839 | all have inhibitory activity; also recorded: excellent inhibitory activity | inhibition at 1 µM (SARS-CoV 3CL protease; [11]): 25.6%; inhibition at 5 µM (SARS-CoV 3CL protease; [12]): 40.4%; inhibition at 10 µM (SARS-CoV 3CL protease; [13]): 61.2%; inhibition at 20 µM (SARS-CoV 3CL protease; [14]): 75%; inhibition at 30 µM (SARS-CoV 3CL protease; [15]): 85.1%; inhibition at 50 µM (SARS-CoV 3CL protease; [16]): 92.1%; inhibition at 100 µM (SARS-CoV 3CL protease; [17]): 96.3%; inhibition at 1 µM (SARS-CoV-2 3CL protease; [11]): 22.9%; inhibition at 5 µM (SARS-CoV-2 3CL protease; [12]): 36.2%; inhibition at 10 µM (SARS-CoV-2 3CL protease; [13]): 57.4%; inhibition at 20 µM (SARS-CoV-2 3CL protease; [14]): 71.2%; inhibition at 30 µM (SARS-CoV-2 3CL protease; [15]): 83.7%; inhibition at 50 µM (SARS-CoV-2 3CL protease; [16]): 88.4%; inhibition at 100 µM (SARS-CoV-2 3CL protease; [17]): 93.2%
